Legend:
[1] = biological target: T1, ATM protein (Homo sapiens, UniProt Q13315); experiment: ATM inhibition assay (immunoprecipitated ATM, GSTp53N66 substrate); format: biochemical
T1 construct: ATM protein was immunoprecipitated from HeLa cell nuclear extract; endogenous in cells; host or cells: HeLa cell nuclear extract (immunoprecipitate)
Procedure: (§1) In order to assess the inhibitory action of the compounds against ATM in vitro, the following assay was used to determine IC50 values.
(§2) ATM protein was immunoprecipitated from HeLa cell nuclear extract using rabbit polyclonal antisera raised to the C-terminal ˜500 amino-acid residues of the human ATM protein. The immunoprecipitation was performed according to the methodology described by Banin, S. et al. (1998) Enhanced phosphorylation of p53 by ATM in response to DNA damage. Science 281:1674-1677. 10 μl of immunoprecipitated ATM in Buffer C (50 mM Hepes, pH 7.4, 6 mM MgCl2, 150 mM NaCl, 0.1 mM sodium orthovanadate, 4 mM MnCl2, 0.1 mM dithiothreitol, 10% glycerol) was added to 32.5 μl of buffer C containing 1 μg of the ATM substrate GSTp53N66 in a V-bottomed 96 well polypropylene plate. The GSTp53N66 substrate is the amino terminal 66 amino acid residues of human wild type p53 fused to glutathione S-transferase. ATM phosphorylates p53 on the residue serine 15 (Banin, S. et al. (1998) Enhanced phosphorylation of p53 by ATM in response to DNA damage. Science 281:1674-1677). Varying concentrations of inhibitor were then added. […] After 10 minutes of incubation at 37° C., the reactions were initiated by the addition of 5 μl of 50 μM Na-ATP. After 1 h with shaking at 37° C., 150 μl of phosphate buffered saline (PBS) was added to the reaction and the plate centrifuged at 1500 rpm for 10 minutes. 5 μl of the reaction was then transferred to a 96 well opaque white plate containing 45 μl of PBS to allow the GSTp53N66 substrate to bind to the plate wells. The plate was covered and incubated at room temperature for 1 h with shaking before discarding the contents. The plate wells were washed twice by the addition of PBS prior to the addition of 3% (w/v) bovine serum albumin (BSA) in PBS. The plate was incubated at room temperature for 1 h with shaking before discarding the contents and washing twice with PBS. To the wells, 50 μl of a 1:10,000 dilution of primary phosphoserine-15 antibody (Cell Signaling Technology, #9284L) in 3% BSA/PBS was added to detect the phosphorylation event on the serine 15 residue of p53 elicited by the ATM kinase. After 1 h of incubation at room temperature with shaking, the wells were washed four times with PBS prior to the addition of an anti-rabbit HRP conjugated secondary antibody (Pierce, 31462) with shaking for 1 h at room temperature. The wells were then washed four times with PBS before the addition of chemiluminescence reagent (NEN Renaissance, NEL105). The plate was then shaken briefly, covered with a transparent plate seal and transferred to a TopCount NXT for chemiluminescent counting. Counts per second, following a one second counting time, were recorded for each reaction. The inhibition of ATM activity by compounds was calculated as described above for the DNA-PK assay.
(§3) The selectivity was determined by the following equation: […]

[2] = test system: ATM protein; experiment: as above; format: biochemical, human; conditions: selectivity ratio from the IC50s for ATM and DNA-PK
Procedure: as §1, §2, §3

T1 sequence (Q13315 whole entry): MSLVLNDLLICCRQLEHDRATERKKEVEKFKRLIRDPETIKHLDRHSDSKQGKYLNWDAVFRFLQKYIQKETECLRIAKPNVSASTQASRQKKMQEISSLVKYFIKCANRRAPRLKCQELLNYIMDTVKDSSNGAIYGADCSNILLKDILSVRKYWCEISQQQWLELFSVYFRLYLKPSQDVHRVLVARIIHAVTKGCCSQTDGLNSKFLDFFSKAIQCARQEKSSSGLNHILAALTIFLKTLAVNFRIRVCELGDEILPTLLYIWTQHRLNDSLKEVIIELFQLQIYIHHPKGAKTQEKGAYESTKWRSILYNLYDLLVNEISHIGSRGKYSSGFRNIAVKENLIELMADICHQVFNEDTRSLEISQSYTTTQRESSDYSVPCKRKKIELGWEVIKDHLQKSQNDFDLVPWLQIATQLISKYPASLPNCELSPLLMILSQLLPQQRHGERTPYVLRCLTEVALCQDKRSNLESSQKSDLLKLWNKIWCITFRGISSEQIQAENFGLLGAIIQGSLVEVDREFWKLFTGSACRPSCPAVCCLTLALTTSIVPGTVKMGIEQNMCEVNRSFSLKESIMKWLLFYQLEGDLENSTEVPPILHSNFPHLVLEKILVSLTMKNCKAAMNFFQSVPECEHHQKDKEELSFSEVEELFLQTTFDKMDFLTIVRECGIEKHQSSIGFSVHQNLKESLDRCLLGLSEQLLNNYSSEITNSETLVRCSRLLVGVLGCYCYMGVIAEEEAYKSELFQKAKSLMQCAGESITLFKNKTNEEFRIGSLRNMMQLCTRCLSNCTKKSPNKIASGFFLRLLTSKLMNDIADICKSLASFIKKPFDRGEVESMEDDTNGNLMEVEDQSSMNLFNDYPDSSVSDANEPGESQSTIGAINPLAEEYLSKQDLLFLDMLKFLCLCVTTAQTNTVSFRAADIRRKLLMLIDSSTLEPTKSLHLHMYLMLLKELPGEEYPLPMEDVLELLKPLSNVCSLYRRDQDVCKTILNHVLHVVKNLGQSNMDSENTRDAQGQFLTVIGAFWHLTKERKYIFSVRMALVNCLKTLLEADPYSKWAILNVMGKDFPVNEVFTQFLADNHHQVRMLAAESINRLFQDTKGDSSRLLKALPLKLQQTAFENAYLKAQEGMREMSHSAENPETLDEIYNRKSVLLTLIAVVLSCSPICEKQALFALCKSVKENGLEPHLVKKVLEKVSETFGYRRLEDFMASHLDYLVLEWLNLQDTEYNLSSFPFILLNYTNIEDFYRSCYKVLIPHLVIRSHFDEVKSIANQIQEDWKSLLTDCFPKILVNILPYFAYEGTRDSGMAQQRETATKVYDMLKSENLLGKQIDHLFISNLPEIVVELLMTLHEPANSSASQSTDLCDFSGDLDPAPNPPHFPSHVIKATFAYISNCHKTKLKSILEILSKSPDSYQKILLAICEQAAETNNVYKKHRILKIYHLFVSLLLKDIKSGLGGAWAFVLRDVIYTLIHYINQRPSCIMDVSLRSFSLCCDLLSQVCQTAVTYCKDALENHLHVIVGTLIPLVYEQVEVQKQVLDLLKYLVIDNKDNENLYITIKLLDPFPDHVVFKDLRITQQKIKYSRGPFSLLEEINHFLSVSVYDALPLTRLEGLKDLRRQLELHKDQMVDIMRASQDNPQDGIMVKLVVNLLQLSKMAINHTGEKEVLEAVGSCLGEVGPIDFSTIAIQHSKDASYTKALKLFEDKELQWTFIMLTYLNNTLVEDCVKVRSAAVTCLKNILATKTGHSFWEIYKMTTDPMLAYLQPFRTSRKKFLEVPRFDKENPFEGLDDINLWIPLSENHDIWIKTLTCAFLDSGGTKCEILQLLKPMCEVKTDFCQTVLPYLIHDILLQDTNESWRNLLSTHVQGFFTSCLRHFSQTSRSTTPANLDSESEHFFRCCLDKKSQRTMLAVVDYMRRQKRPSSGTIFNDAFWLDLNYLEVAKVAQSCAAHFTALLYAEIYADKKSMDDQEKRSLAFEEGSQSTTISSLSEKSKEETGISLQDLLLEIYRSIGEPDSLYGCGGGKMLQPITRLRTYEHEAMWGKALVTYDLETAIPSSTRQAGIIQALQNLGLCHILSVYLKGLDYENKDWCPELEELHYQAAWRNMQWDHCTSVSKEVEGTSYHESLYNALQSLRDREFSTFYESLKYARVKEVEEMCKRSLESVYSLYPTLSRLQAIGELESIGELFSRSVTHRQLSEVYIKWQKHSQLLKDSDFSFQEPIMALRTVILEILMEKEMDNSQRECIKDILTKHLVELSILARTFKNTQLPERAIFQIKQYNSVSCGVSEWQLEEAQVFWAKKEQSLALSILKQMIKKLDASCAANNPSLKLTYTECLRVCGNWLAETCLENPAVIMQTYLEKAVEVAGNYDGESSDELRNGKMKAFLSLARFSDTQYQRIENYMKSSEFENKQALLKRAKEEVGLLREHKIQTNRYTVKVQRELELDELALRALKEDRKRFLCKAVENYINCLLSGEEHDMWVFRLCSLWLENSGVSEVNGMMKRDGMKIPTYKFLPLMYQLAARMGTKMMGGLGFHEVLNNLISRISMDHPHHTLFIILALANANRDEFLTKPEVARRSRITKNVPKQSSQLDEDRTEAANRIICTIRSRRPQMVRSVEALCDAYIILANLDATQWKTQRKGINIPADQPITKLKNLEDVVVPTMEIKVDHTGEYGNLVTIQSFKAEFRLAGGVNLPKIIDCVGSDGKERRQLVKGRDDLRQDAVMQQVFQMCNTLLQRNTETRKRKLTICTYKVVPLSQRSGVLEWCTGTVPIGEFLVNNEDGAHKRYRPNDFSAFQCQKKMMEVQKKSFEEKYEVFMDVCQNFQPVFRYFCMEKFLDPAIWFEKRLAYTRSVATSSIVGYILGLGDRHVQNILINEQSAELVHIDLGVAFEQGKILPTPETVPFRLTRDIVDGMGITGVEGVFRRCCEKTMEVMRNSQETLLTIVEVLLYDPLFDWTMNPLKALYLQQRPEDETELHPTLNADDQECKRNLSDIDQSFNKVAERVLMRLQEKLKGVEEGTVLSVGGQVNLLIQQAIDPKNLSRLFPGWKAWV

IC50 [1] [µM]	Structure (SMILES)	Δ(DNA-PK/ATM) [2]
45	O=c1cc(N2CCOCC2)oc2c3c(ccc12)CCCC3 [Compound 297, 7,8,9,10-tetrahydro-benzo[h]-2-(morpholin-4-yl)-chromen-4-one]	90
> 100	CC1CN(c2cc(=O)c3ccc4ccccc4c3o2)CCO1 (stereo not drawn) [Compound 317, 2-(2-Methyl-morpholin-4-yl)-benzo[h]chromen-4-one]	>333
> 100	O=C1c2ccccc2C(=O)N1CCCOc1ccc2c(=O)cc(N3CCOCC3)oc2c1 [Compound 422, N-[3-(2-(Morpholin-4-yl)-4-oxo-4H-chromen-7-yloxy)-propyl]-phthalimide]	>200

— patent US7674823B2, “DNA-PK inhibitors” (Cancer Research Technology Limited, priority 2001, dated 2010)
